Data: patent US20180360705A1, “TOPICAL DELIVERY SYSTEM FOR ACTIVE INREDIENTS” (L'OREAL, priority 2015, published 2018)

Assay: Maximum solubility of active ingredient in oils
Format: physicochemical
Conditions: room temperature, atmospheric pressure
Description: The maximum solubility of the active ingredients in the oil phase can be measured in any way which is known in the art. For example, an excess amount of the active ingredient is dissolved in the oil and mixed vigorously at elevated temperature, and then this sample is cooled down to room temperature and maintained for several hours to days. This mixture is centrifuged to separate an oil phase and the concentration of the active ingredient in the separated oil phase is measured using UV spectroscopy.
In the representative examples of the active ingredients of the present invention, the maximum solubilities of phenylethyl resorcinol and 4-(tetrahydro-2H-pyran-4-yl) benzene-1,3-diol in various oils measured at room temperature and under atmospheric pressure are shown below.

In the case of `CC(c1ccccc1)c1ccc(O)cc1O` (stereo not shown) [Phenylethyl Resorcinol], the “maximum solubility in oil” value (Isododecane) was 0.043%, the “maximum solubility in oil” value (Isopropyl Lauroyl Sarcosinate) was 42% and the “maximum solubility in oil” value (Isopropyl Myristate) was 36%. The “maximum solubility in oil” value (Sesamum Indicum (Sesame) Seed Oil) was 23%.
